ChEMBL document CHEMBL4422634, “Discovery of novel anti-angiogenesis agents. Part 9: Multiplex inhibitors suppressing compensatory activations of RTKs” (Eur J Med Chem, 2019)

How the values were obtained:
Angiopoietin-1 receptor = Angiopoietin-1 receptor (Homo sapiens, UniProt Q02763); assay: Inhibition of Tie-2 (unknown origin) after 1 hrs by ADP-Glo luminescence assay
EA.hy 926 = assay: Antiproliferative activity against human EAhy926 cells assessed as reduction in cell viability after 24 hrs by CCK-8 assay; settings: EA.hy 926, 24 h
Ephrin type-B receptor 4 = molecular target: T1, Ephrin type-B receptor 4 (Homo sapiens, UniProt P54760); assay: Inhibition of EphB4 (unknown origin) after 1 hrs by ADP-Glo luminescence assay
T1 sequence (P54760 whole entry): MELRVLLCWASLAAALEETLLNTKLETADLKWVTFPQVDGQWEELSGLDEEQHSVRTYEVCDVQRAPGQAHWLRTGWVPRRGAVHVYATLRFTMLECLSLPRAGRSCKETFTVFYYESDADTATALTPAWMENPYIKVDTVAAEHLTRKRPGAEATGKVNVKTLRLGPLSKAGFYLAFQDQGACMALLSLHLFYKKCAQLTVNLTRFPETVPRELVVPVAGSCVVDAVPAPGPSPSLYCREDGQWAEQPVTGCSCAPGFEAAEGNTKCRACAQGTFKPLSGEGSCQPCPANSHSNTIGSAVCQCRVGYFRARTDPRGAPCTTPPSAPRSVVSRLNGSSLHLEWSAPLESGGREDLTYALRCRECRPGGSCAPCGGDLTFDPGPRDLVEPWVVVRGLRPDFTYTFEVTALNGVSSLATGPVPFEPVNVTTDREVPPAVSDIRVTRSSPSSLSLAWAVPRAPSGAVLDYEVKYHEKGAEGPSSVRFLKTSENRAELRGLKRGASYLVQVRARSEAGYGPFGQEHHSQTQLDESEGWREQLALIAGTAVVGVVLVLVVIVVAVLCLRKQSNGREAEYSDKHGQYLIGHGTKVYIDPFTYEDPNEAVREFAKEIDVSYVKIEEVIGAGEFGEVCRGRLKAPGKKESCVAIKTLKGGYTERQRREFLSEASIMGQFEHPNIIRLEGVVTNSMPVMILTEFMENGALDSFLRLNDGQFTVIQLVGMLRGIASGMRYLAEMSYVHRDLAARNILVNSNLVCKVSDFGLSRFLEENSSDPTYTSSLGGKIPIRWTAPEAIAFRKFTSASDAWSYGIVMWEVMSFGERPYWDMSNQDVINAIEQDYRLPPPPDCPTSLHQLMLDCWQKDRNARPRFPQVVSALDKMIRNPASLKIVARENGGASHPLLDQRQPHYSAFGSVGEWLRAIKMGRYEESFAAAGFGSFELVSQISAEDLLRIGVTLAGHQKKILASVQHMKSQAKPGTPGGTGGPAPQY

[1] = molecular target: Vascular endothelial growth factor receptor 2 (Homo sapiens, UniProt P35968); assay: Inhibition of VEGFR-2 (unknown origin) after 1 hrs by ADP-Glo luminescence assay
Vascular endothelial growth factor receptor 2, sequence (P35968 whole entry): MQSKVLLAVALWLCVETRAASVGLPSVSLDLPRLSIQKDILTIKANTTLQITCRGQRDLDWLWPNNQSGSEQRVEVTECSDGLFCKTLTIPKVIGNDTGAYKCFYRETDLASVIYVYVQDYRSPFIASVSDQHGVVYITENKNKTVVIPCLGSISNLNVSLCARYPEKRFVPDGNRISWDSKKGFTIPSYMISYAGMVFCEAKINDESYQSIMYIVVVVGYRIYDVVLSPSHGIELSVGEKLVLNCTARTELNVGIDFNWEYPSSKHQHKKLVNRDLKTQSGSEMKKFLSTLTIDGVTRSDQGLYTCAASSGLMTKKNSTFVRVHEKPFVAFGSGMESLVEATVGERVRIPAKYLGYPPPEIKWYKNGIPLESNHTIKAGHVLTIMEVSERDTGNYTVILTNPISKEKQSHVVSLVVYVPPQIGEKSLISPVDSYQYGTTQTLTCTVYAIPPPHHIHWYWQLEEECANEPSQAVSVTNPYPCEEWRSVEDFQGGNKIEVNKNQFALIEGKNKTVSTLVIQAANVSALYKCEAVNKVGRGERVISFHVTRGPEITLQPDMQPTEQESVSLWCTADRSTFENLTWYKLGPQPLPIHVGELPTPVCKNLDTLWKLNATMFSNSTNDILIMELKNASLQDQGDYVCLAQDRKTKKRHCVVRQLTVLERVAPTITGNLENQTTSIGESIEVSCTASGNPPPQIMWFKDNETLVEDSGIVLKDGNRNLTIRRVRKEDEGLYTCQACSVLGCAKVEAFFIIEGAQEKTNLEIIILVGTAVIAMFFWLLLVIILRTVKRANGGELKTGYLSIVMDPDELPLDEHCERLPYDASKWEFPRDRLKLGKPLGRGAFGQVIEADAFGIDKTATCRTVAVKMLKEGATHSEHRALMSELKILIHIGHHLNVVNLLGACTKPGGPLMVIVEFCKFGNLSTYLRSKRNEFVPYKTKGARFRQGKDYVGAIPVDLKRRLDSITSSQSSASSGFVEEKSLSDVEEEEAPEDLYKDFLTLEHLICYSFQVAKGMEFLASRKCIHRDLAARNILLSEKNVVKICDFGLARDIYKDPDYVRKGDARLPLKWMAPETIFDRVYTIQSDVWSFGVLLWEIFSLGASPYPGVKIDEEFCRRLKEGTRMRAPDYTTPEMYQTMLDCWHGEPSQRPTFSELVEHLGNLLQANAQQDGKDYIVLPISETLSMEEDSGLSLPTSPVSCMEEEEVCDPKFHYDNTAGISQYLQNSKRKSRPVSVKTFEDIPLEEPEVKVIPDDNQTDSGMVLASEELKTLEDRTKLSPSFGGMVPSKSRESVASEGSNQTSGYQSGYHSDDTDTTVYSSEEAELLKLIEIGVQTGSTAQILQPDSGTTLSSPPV

MCF7 = assay: Antiproliferative activity against human MCF7 cells after 48 hrs by MTT assay; settings: MCF7, 48 h
LoVo = assay: Antiproliferative activity against human LoVo cells after 48 hrs by MTT assay
A549 = assay: Antiproliferative activity against human A549 cells after 48 hrs by MTT assay; settings: A549, 48 h
HeLa = assay: Antiproliferative activity against human HeLa cells after 48 hrs by MTT assay
A-431 = assay: Antiproliferative activity against human A431 cells after 48 hrs by MTT assay; settings: A-431, 48 h

Angiopoietin-1 receptor, sequence (Q02763 whole entry): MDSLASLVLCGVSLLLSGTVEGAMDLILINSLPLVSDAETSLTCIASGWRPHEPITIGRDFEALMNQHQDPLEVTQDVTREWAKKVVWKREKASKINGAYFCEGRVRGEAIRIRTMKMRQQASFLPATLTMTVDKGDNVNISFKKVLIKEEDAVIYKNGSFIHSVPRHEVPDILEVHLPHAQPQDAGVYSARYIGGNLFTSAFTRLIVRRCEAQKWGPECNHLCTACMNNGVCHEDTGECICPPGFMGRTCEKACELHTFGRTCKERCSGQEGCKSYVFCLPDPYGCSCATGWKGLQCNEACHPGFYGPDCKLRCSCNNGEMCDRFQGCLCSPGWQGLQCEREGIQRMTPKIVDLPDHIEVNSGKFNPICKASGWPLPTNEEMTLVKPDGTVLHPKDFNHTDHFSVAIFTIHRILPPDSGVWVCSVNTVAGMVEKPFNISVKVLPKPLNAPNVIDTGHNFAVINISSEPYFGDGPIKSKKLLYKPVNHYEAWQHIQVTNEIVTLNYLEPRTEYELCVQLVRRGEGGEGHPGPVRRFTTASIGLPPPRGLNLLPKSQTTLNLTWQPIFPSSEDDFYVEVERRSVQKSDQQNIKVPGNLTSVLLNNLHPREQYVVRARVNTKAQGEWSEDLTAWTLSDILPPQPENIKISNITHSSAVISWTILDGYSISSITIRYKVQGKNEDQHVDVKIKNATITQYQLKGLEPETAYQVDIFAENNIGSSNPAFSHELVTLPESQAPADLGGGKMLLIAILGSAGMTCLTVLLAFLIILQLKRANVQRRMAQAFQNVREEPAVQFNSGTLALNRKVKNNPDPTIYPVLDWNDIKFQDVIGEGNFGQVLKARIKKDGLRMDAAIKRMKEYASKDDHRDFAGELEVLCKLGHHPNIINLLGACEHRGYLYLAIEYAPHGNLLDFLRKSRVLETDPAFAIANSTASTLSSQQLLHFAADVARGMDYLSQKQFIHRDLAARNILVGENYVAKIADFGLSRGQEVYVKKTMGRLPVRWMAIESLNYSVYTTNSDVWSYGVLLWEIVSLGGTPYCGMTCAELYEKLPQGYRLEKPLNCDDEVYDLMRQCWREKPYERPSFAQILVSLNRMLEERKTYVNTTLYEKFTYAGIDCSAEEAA

IC50 (Angiopoietin-1 receptor) [nM] | IC50 (Ephrin type-B receptor 4) [nM] | SMILES | IC50 (EA.hy 926) [nM] | further results
210 | > 1000 | Nc1cccc(-c2cn(Cc3ccc(-c4cncnc4)cc3)nn2)c1 | 30200 | –
> 1000 | > 1000 | O=C(Nc1cccc(-c2cn(Cc3ccc(-c4cncnc4)cc3)nn2)c1)C1CC1 | 17300 | –
9.11 | – | Cn1cc(-c2ccc(Cn3cc(-c4ccc(C(F)(F)F)cc4)nn3)cc2)cn1 | – | IC50 [1]: > 1000 nM
51.4 | – | Cc1cccc(-c2cn(Cc3ccc(-c4cnn(C)c4)cc3)nn2)c1 | 1110 | IC50 [1]: > 1000 nM
46.4 | > 1000 | Cc1cccc(-c2cn(Cc3ccc(-c4cn[nH]c4)cc3)nn2)c1 | 134000 | –
– | – | CNC(=O)c1cc(Oc2ccc(NC(=O)Nc3ccc(Cl)c(C(F)(F)F)c3)cc2)ccn1 [SORAFENIB] | – | IC50 (MCF7): 3470 nM; IC50 (LoVo): 2520 nM; IC50 (A549): 3880 nM; IC50 (HeLa): 8740 nM; IC50 (A-431): 3320 nM
> 1000 | – | FC(F)(F)c1ccc(-c2cn(Cc3ccc(-c4cn[nH]c4)cc3)nn2)cc1 | 20900 | IC50 [1]: > 1000 nM
13.7 | – | Cc1cccc(-c2cn(Cc3ccc(-c4cncnc4)cc3)nn2)c1 | 142000 | –
5.45 | – | Fc1ccccc1-c1cn(Cc2ccc(-c3cncnc3)cc2)nn1 | 22500 | –
0.82 | > 1000 | Cn1cc(-c2ccc(Cn3cc(-c4cccc(NC(=O)C5CC5)c4)nn3)cc2)cn1 | 484000 | –
> 1000 | > 1000 | FC(F)(F)c1ccc(-c2cn(Cc3ccc(-c4cncnc4)cc3)nn2)cc1 | 46800 | –
2.69 | – | Cn1cc(-c2ccc(Cn3cc(-c4ccccc4F)nn3)cc2)cn1 | 1900 | IC50 (MCF7): 15600 nM; IC50 (LoVo): 1320 nM; IC50 (A549): 1200 nM; IC50 (HeLa): 27800 nM; IC50 (A-431): 7290 nM
> 1000 | > 1000 | Cn1cc(-c2ccc(Cn3cc(-c4cccc(N)c4)nn3)cc2)cn1 | 22000 | –
25.7 | – | Cc1ccc(-c2cn(Cc3ccc(-c4cncnc4)cc3)nn2)cc1 | 1010 | –
– | > 1000 | Clc1cccc(-c2cn(Cc3ccc(-c4cncnc4)cc3)nn2)c1 | 7830 | –
77.4 | – | Cc1ccc(-c2cn(Cc3ccc(-c4cnn(C)c4)cc3)nn2)cc1 | 38100 | –
> 1000 | – | Cn1cc(-c2ccc(Cn3cc(-c4ccccc4)nn3)cc2)cn1 | 62200 | –
5.46 | – | Fc1ccccc1-c1cn(Cc2ccc(-c3cn[nH]c3)cc2)nn1 | 20000 | –
> 1000 | > 1000 | Nc1cccc(-c2cn(Cc3ccc(-c4cn[nH]c4)cc3)nn2)c1 | 251000 | IC50 [1]: > 1000 nM
51.9 | – | c1ccc(-c2cn(Cc3ccc(-c4cncnc4)cc3)nn2)cc1 | 35500 | IC50 [1]: > 1000 nM
1.79 | – | Cn1cc(-c2ccc(Cn3cc(-c4cccc(C(F)(F)F)c4)nn3)cc2)cn1 | 69000 | –
